Values quoted from earlier work as cited in patent publication US12409239B2, “Particles for use in hyperpolarization” (BEACON MRI LTD, priority 2021, dated 2025).

Details: background statement

- T1: about a minute
Compound: CC(=O)C(=O)O [pyruvate/pyruvic acid, pyruvic acid]
